Counter-ions that a name gives are not always drawn. Bounds are passed on as bounds.

The term CC50 denotes the concentration giving 50% cytotoxicity.

The first series in a line: in vitro. The conditions noted are these: rat, gh3-tre-luc cells, AC50 (uM) modified / 1000.
As for `C/C=C(/CC[C@@H](C)[C@H]1CC[C@H]2C3=CC[C@H]4[C@H](C)[C@@H](O)CC[C@]4(C)[C@H]3CC[C@]12C)C(C)C` [Sitosterol alpha1], the CC50 at 24 h is over 50 µM.

`CC(C)(C)C(=O)Oc1ccc(S(=O)(=O)Nc2ccccc2C(=O)NCC(=O)O)cc1` [Sivelestat sodium tetrahydrate] registered a CC50 at 24 h of over 50 µM.

Regarding `CC(C)COC(=O)OCN1C(=O)CN(CCN2CC(=O)N(COC(=O)OCC(C)C)C(=O)C2)CC1=O` [Sobuzoxane], the CC50 at 24 h was over 50 µM.

The compound `CC(C)COC(=O)CC(C(=O)OCC(C)C)S(=O)(=O)O` (stereo not drawn) [Sodium 1,4-diisobutyl sulfosuccinate] displayed a CC50 at 24 h of over 90 µM.

For `O=S(=O)(O)c1cccc2ccccc12` [Sodium 1-naphthalenesulfonate], the CC50 at 24 h is over 90 µM.

Turning to `CCCCCCCCS(=O)(=O)O` [Sodium 1-octanesulfonate], the CC50 at 24 h is over 90 µM.

As for `O=S(=O)(O)CC(S)CS` (stereo not drawn) [Sodium 2,3-dimercaptopropanesulfonate hydrate], the CC50 at 24 h was over 50 µM.

Regarding `CNCCS(=O)(=O)O` [Sodium 2-(methylamino)ethanesulfonate], the CC50 at 24 h was over 90 µM.

For `O=S(=O)(O)CCN1CCN(CCO)CC1` [Sodium 2-[4-(2-hydroxyethyl)piperazin-1-yl]ethanesulfonate], the cytotoxic concentration (CC50) at 24 h was over 90 µM.

`O=Cc1ccccc1S(=O)(=O)O` [Sodium 2-formylbenzenesulfonate]: the CC50 at 24 h is over 90 µM.

`O=S(=O)(O)CCO` [Sodium 2-hydroxyethanesulfonate]: the CC50 at 24 h was over 90 µM.

`O=S(=O)(O)CCS` [Sodium 2-mercaptoethanesulfonate]: the CC50 at 24 h is over 90 µM.

For `Cc1ccccc1S(=O)(=O)O` [Sodium 2-methylbenzenesulfonate], the CC50 at 24 h was over 100 µM.

Compound `C=C(C)CS(=O)(=O)O` [Sodium 2-methylprop-2-ene-1-sulfonate] yielded a 50% cytotoxic concentration (CC50) at 24 h of over 90 µM.

`O=S(=O)(O)c1ccc2ccccc2c1` [Sodium 2-naphthalenesulfonate] returned a CC50 at 24 h of over 90 µM.

For `COC(=O)c1cc(C(=O)OC)cc(S(=O)(=O)O)c1` [Sodium 3,5-bis(methoxycarbonyl)benzenesulfonate], the CC50 at 24 h is over 90 µM.

With `C=CCOCC(O)CS(=O)(=O)O` (stereo not drawn) [Sodium 3-(allyloxy)-2-hydroxypropanesulphonate], the CC50 at 24 h is over 90 µM.

Regarding `O=S(=O)(O)CC(O)CCl` (stereo not drawn) [Sodium 3-chloro-2-hydroxypropane-1-sulfonate], the CC50 at 24 h was over 90 µM.

For `O=[N+]([O-])c1cccc(S(=O)(=O)O)c1` [Sodium 3-nitrobenzenesulfonate], the CC50 at 24 h was over 90 µM.

`Nc1ccc(C(=O)O)c(O)c1` [Sodium 4-aminosalicylate] gave a CC50 at 24 h of over 50 µM.

Compound `O=S(=O)(O)c1ccc(O)cc1` [Sodium 4-hydroxybenzenesulfonate] came in with a CC50 at 24 h of over 90 µM.

Compound `CCCCCCCCc1ccc(S(=O)(=O)O)cc1` [Sodium 4-octylbenzenesulfonate] came in with a cytotoxic concentration (CC50) at 24 h of over 90 µM.

`O=C(O)CCCc1ccccc1` [Sodium 4-phenylbutyrate] displayed a CC50 at 24 h of over 50 µM.

On to `C=Cc1ccc(S(=O)(=O)O)cc1` [Sodium 4-vinylbenzenesulfonate], for which the 50% cytotoxic concentration (CC50) at 24 h worked out at 31.8 µM.

Turning to `O=C(O)C1=NN(c2ccc(S(=O)(=O)O)cc2)C(=O)C1` [Sodium 5-oxo-1-(4-sulfophenyl)-4,5-dihydro-1H-pyrazole-3-carboxylate], the CC50 at 24 h was over 90 µM.

Regarding `O=C(O)c1cc(C(=O)O)cc(S(=O)(=O)O)c1` [Sodium 5-sulfoisophthalate], the CC50 at 24 h was over 90 µM.

As for `O=C1c2ccccc2C(=O)c2cc(S(=O)(=O)O)ccc21` [Sodium 9,10-dioxo-9,10-dihydroanthracene-2-sulfonate], the CC50 at 24 h is over 90 µM.

Compound `On1ccccc1=S` [Sodium (2-pyridylthio)-N-oxide] showed a cytotoxic concentration (CC50) at 24 h of 1.83 µM.

`O=C(O)/C=C/C(O)c1ccc(Cl)cc1` (stereo not drawn) [Sodium (2E)-4-(4-chlorophenyl)-4-hydroxybut-2-enoate hydrate] gave a CC50 at 24 h of over 50 µM.

The compound `CC(C)C1=CC2=CC[C@@H]3[C@](C)(CCC[C@@]3(C)C(=O)O)[C@H]2CC1` [Sodium abietate] yielded a CC50 at 24 h of 74.3 µM.

Turning to `COc1cccc2c1cc([N+](=O)[O-])c1c(C(=O)O)cc3c(c12)OCO3` [Sodium aristolochate-I], it took 5.9 µM to reach half-maximal cytotoxicity (CC50 at 24 h).

On to `CCC1(CC)C(=O)NC(=O)NC1=O` [Sodium barbital], for which the CC50 at 24 h is over 90 µM.

For `CCCCCCCCCCOS(=O)(=O)O` [Sodium decyl sulfate], the CC50 at 24 h is over 90 µM.

On to `CC(C)(C)c1ccc2c(S(=O)(=O)O)c(C(C)(C)C)ccc2c1` [Sodium dibunate], for which the CC50 at 24 h is over 50 µM.

`CCCCN(CCCC)C(=S)S` [Sodium dibutylcarbamodithioate] returned a cytotoxic concentration (CC50) at 24 h of over 90 µM.

Regarding `CCOC(=O)CC(=O)C(=O)OCC` [Sodium diethyl oxaloacetate], the CC50 at 24 h was over 90 µM.

In the case of `CCCCCCCCCCCCOS(=O)(=O)O` [Sodium dodecyl sulfate], the CC50 at 24 h is over 90 µM.

In the case of `CCCCC(CC)COS(=O)(=O)O` (stereo not drawn) [Sodium ethasulfate], the CC50 at 24 h is over 90 µM.

For the compound `C=CS(=O)(=O)O` [Sodium ethenesulfonate], the CC50 at 24 h is over 50 µM.

Regarding `O=C(O)CF` [Sodium fluoroacetate], the CC50 at 24 h is over 90 µM.

With `CCCCCCCCCCCCCCCCOS(=O)(=O)O` [Sodium hexyldecyl sulfate], the 50% cytotoxic concentration (CC50) at 24 h was 50.6 µM.

With `O=S(=O)(O)CO` [Sodium hydroxymethanesulfonate], the cytotoxic concentration (CC50) at 24 h is over 90 µM.

As to `CCCCCCCCCCCCOCCOS(=O)(=O)O` [Sodium lauryl polyoxyethylene ether sulfate], half-maximal cytotoxicity (CC50 at 24 h) was put at 41 µM.

Consider `Cc1ccc(S(=O)(=O)O)c(C)c1` [Sodium m-xylene-4-sulfonate], for which the CC50 at 24 h is over 90 µM.

In turn, `COS(=O)(=O)O` [Sodium methyl sulfate] returned a CC50 at 24 h of over 90 µM.

For the compound `CCCCCCCCCCCCCCOS(=O)(=O)O` [Sodium myristyl sulfate], the CC50 at 24 h is 32 µM.

Regarding `CCCCCCCCOS(=O)(=O)O` [Sodium octyl sulfate], the 50% cytotoxic concentration (CC50) at 24 h is over 90 µM.

`O=C1NS(=O)(=O)c2ccccc21` [Sodium saccharin] had a CC50 at 24 h of over 90 µM.

The compound `O=C(O)c1ccccc1O` [Sodium salicylate] displayed a CC50 at 24 h of over 90 µM.

Compound `Nc1ccc(S(=O)(=O)O)cc1` [Sodium sulfanilate] yielded a CC50 at 24 h of over 90 µM.

Compound `CCCCCCCCCCCCCOS(=O)(=O)O` [Sodium tridecyl sulfate] registered a CC50 at 24 h of over 90 µM.

Still in this series, the particulars now being: rat, gh3-tre-luc cells, AC50 (uM) modified / 1000, Tox21_110001=Tox21_111223; viability, 1 nM T3 present, 24 h.
Take `C[C@]12CC[C@H](OS(=O)(=O)O)CC1=CC[C@@H]1[C@@H]2CC[C@]2(C)C(=O)CC[C@@H]12` [Sodium prasterone sulfate dihydrate]: the CC50 at 24 h was over 50 µM.

Staying with this series, now noted: rat, gh3-tre-luc cells, AC50 (uM) modified / 1000, Tox21_110001=Tox21_112083; viability, 1 nM T3 present, 24 h.
In the case of `O=c1[nH]c(=O)n(Cl)c(=O)n1Cl` [Sodium dichloroisocyanurate], the half-maximal cytotoxic concentration (CC50) at 24 h was over 50 µM.

Staying with this series, now noted: rat, gh3-tre-luc cells, AC50 (uM) modified / 1000, Tox21_110001=Tox21_112097; viability, 1 nM T3 present, 24 h.
The compound `Oc1ccccc1-c1ccccc1` [Sodium 2-phenylphenate tetrahydrate] yielded a CC50 at 24 h of over 50 µM.

The same series, now with this note: rat, gh3-tre-luc cells, AC50 (uM) modified / 1000, Tox21_110001=Tox21_112871; viability, 1 nM T3 present, 24 h.
`O=C(O)CCCO` [Sodium 4-hydroxybutanoate] showed a 50% cytotoxic concentration (CC50) at 24 h of over 100 µM.

Still in this series, the particulars now being: rat, gh3-tre-luc cells, AC50 (uM) modified / 1000, Tox21_110001=Tox21_201601; viability, 1 nM T3 present, 24 h.
Compound `O=c1[nH]c(=O)n(Cl)c(=O)n1Cl` [Sodium dichloroisocyanurate] had a cytotoxic concentration (CC50) at 24 h of over 90 µM.

Staying with this series, now noted: rat, gh3-tre-luc cells, AC50 (uM) modified / 1000, Tox21_110001=Tox21_301761; viability, 1 nM T3 present, 24 h.
For `CC(C)CP(=S)(S)CC(C)C` [Sodium bis(2-methylpropyl)phosphinodithioate], the CC50 at 24 h was over 90 µM.
